Assay results: patent US20260183262A1, “RNA-BINDING MOTIF PROTEIN 39 (RBM39) DEGRADERS FOR TREATMENT OF CANCERS” (RECURSION PHARMACEUTICALS, INC., priority 2022, published 2026)

How the values were obtained:
OVCAR3 cells = test: CellTiter-Glo cell viability assay in OVCAR3 cell line; assay type: cell-based, human; settings: 72 h
Protocol: • Cell culture: OVCAR3 is a human ovarian cancer cell line that is BRCA-proficient and HRD negative. Pharmaron in China acquired this cell line for in vitro testing. OVCAR3 human ovarian tumor cells were maintained in vitro with RPMI-1640 (Glutamax)+0.01 mg/ml insulin+20% FBS+1% PS • Cell Seeding: Cells were harvested from flask into cell culture medium and counted. Cells were diluted with culture medium for below cell densities and 8000 OVCAR cells were plated per well in a 384-well plate (PerkinElmer, Cat. #6007680), using electronic multichannel pipette in 40 μL. For the low control wells, 40 μL PBS was added. […] Plates were covered with lid and spun at 1 min/1000 rpm followed by incubation overnight at 37° C., 5% CO2. • Compound Time: SR4835 and THZ531 were dissolved at 10 mM stock solution and diluted in a 3-fold, 9-point diluted series. Cells were treated with 40 nL of SR4835 and THZ531 by plate reformat Echo550 followed by incubation at 37° C. for 72 h in a CO2 incubator. For the high control, 40 nL DMSO was added. • Readout: CellTiter-Glo@ 2.0 Reagent (Promega, G9242) was removed from the fridge and equilibrated at RT(23° C.) for 60 minutes. Plates were removed from the incubator and allowed to equilibrate to room temperature, for at least 15 minutes. 30 μL CellTiter-Glo® 2.0 Reagent was added to the assay plates and allowed to sit for 30 minutes prior to reading. Luminescence signal was read on Envision. • Calculation: Cell viability (% DMSO control) was calculated using the following equation
• Cell culture: OVCAR3 is a human ovarian cancer cell line that is BRCA-proficient and HRD negative. Pharmaron in China acquired this cell line for in vitro testing. OVCAR3 human ovarian tumor cells were maintained in vitro with RPMI-1640 (Glutamax)+0.01 mg/ml insulin+20% FBS. • Cell Seeding: Cells were harvested from flask into cell culture medium and counted. Cells were diluted with culture medium for below cell densities and 8000 OVCAR cells were plated per well in a 384-well plate (PerkinElmer, Cat. #6007680), using electronic multichannel pipette in 50 μL For the low control wells, 50 μL PBS was added. […] Cells were treated with E7820 and indisulam by plate reformat Echo software and spun 1 min/1000 rpm followed by incubation at 37° C. for 72 h in a CO2 incubator. • Readout: CellTiter-Glo@ 2.0 Reagent (Promega, G9242) was removed from the fridge and equilibrated at RT (23° C.) for 60 minutes. […] 40 μL CellTiter-Glo® 2.0 Reagent was added to the assay plates, and spun 1 min/1000 rpm, then allowed to sit for 20 minutes prior to reading. Luminescence signal was read on Envision. • Calculation: Cell viability (% DMSO control) was calculated using the following equation

CDK12+Cyclin K = target: T1, CDK12+Cyclin K (Homo sapiens, UniProt Q9NYV4); test: NanoBRET target engagement intracellular kinase assay in HEK293; assay type: cell-based; settings: HEK293 cells transfected with CDK12-NanoLuc and CCNK; up to 10 μM
T1 construct: host or cells: HEK293 (transient transfection, FuGENE HD)
T1 sequence (Q9NYV4 whole entry): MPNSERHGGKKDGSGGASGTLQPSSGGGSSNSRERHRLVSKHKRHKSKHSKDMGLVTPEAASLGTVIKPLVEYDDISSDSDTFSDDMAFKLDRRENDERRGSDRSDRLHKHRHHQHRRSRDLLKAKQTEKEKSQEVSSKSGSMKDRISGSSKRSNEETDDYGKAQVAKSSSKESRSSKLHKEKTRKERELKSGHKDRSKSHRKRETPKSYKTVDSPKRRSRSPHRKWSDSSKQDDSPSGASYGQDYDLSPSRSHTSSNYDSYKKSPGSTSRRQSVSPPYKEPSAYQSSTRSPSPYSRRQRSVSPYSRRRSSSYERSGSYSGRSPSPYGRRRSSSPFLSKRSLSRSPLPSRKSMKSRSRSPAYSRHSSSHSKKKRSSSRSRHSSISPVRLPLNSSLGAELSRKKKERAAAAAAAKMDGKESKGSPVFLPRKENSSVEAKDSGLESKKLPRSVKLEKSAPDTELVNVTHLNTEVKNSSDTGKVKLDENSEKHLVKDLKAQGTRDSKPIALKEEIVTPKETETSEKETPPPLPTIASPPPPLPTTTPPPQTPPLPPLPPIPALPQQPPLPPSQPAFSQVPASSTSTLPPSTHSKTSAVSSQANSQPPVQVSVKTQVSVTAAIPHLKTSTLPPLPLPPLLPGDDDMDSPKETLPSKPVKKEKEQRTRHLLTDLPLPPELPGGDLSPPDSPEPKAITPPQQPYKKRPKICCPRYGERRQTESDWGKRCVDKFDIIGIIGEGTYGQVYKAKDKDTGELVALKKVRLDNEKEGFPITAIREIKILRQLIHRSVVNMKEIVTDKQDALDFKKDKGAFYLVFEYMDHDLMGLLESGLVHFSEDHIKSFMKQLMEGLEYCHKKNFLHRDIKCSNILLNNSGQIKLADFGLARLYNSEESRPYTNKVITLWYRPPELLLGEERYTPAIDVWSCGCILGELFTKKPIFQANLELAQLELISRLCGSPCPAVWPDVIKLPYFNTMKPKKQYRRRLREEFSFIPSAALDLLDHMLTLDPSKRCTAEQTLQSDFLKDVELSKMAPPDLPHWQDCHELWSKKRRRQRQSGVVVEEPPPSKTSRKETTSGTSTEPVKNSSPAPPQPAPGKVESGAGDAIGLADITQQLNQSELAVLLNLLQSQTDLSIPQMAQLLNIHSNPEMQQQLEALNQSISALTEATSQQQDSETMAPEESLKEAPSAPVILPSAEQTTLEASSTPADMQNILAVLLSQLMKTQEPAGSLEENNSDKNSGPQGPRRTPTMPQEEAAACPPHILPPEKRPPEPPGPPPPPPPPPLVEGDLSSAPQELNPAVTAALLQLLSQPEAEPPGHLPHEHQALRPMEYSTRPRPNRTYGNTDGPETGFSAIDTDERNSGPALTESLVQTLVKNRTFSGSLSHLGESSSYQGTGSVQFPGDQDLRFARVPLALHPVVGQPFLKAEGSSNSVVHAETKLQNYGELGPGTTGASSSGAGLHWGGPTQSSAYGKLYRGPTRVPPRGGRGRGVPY
T1 sequence (O75909 whole entry partner): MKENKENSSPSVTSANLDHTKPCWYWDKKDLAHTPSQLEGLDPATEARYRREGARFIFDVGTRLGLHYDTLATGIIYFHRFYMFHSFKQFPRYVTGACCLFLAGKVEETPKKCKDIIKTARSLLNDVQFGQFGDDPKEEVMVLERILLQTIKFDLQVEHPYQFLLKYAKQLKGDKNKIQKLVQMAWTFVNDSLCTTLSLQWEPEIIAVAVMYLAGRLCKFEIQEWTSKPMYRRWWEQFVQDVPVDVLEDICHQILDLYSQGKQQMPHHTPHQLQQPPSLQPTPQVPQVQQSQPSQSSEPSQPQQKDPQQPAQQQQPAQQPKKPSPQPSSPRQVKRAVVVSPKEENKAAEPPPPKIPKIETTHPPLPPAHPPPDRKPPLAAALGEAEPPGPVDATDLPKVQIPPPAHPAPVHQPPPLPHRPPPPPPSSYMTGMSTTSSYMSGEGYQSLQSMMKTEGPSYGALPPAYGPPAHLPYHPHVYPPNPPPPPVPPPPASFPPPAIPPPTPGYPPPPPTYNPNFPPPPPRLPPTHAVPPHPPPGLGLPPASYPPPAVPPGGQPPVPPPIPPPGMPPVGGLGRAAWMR
Protocol: • Cell culture: CDK12 NanoBRET assay kit was obtained from Reaction Biology with experiment performed by Pharmaron. HEK293 cells were cultured using 90% DMEM with 10% FBS. Cells were cultivated in T-75 flasks in a cell culture incubator set at 37° C., 5% CO^2, 95% relative humidity. Once cells reached 80-90% confluence, they were detached and split. Cultivated cells in T-75 flasks were rinsed with 5 mL PB and aspirated off. 1.5 mL trypsin was added and incubated at 37° C. for approximately 5 minutes or until the cells detached and started to float. Trypsin was inactivated by adding excess serum containing medium. • Transient Transfection of HEK293 Cells: Cell culture medium was removed from cell flask by aspiration and trypsinized, allowing cells to dissociate from flask. Trypsin was neutralized using cell culture medium and centrifuged at 200×g for 5 minutes to pellet cells. Medium was aspirated and resuspended in assay medium consisting of 99% Opti-MEM, reduced serum medium with no phenol red and 1% FBS. Density was adjusted to 2×10^5 cells/ml using assay medium. 10 μg/ml solution of DNA in Opti-MEM was prepared consisting of 9 μg/mL of CCNK, 1 ug/mL of Kinase-NanoLuc fusion vector DNA CDK12, and 1 mL of Opti-MEM. This solution was mixed thoroughly. 30 μl of FuGENE HD Transfection Reagent was added into each milliliter of DNA mixture to form lipid: DNA complex. Mixture was inverted 5-10 times and incubated at ambient temperature for 20 minutes to allow complexes to form. In a sterile, conical tub, 1 part of lipid DNA complex (1 mL) was mixed with 20 parts of HEK293 cells (20 mL) in suspension at 2×10^5 cells/mL. Tube was mixed gently by inversion 5 times. […] Lastly, 20 μL of this 3× complete substrate plus inhibitor solution was added to each well of the 384-well plate and incubated for 2-3 minutes at room temperature and read the plate on the Envision. • Calculation: BRET Ratio was calculated as follows: […]

CDK12 knockout = test: High content phenotypic CRISPR/Cas9 screen in HUVEC cells: CDK12 knockout phenocopy; assay type: cell-based, human; settings: wild-type HUVEC cells; machine vision analysis
Description: (§1) As disclosed herein, numerous small molecules have been investigated for HRD deficient and PARP inhibitor resistant cancers and it was confirmed that E7820 is efficacious alone or in combination with PARP inhibitors in preclinical mouse cancer models. To select E7820 as a potential therapeutic for this disease, a high content phenotypic whole genome arrayed CRISPR/Cas9 screen was developed in HUVEC cells to identify cellular and structural changes associated between the genetic knockout of human genes. This high dimensional biological data set of single gene knockout phenotypes was then compared to the cellular and structural changes arising from the treatment of over 200,000 small molecules in intron-controlled wild-type HUVEC cells. […] RBM39 degraders, such as these aryl sulfonamides, may therefore be used to treat cancers where CDK12 is a suitable therapeutic target, for example, cancers where patients develop resistance to PARP inhibitors or cancers with HRD negative/HR-proficient tumors. Similar to depletion of CDK12, RBM39 degraders may be used to induce a synthetic lethality phenotype when combined with DDR inhibitors such as PARP inhibitors, thus enabling treatment of patients who would not derive benefit from treatment with the DDR inhibitor in the absence of an RBM39 degrader.

[1] = test system: RNA-binding motif protein 39 (RBM39) CRISPR/Cas9 knockout; test: High content phenotypic CRISPR/Cas9 screen in HUVEC cells: RBM39 knockout phenocopy; assay type: cell-based, human; settings: wild-type HUVEC cells; machine vision analysis
Description: as §1

Compound	cell viability (OVCAR3 cells)	CDK12 kinase activity (CDK12+Cyclin K)	phenocopy of CDK12 knockout (cellular and structural changes) (CDK12 knockout)	phenocopy of RBM39 CRISPR/Cas9 knockout [1]
NS(=O)(=O)c1ccc(S(=O)(=O)Nc2cccc3c(Cl)c[nH]c23)cc1 [indisulam]	minimal effect on cell viability	does not affect CDK12 kinase activity	phenocopy CDK12 loss	phenocopy RNA-binding motif protein 39 (RBM39) CRISPR/Cas9 knockout
CN(C)C/C=C/C(=O)Nc1ccc(C(=O)N2CCC[C@@H](Nc3ncc(Cl)c(-c4c[nH]c5ccccc45)n3)C2)cc1 [THZ531]	dose-dependent decreases in cell viability	dose-dependent inhibition of kinase function		
O=C(NS(=O)(=O)c1ccc(Br)s1)c1ccc(Cl)cc1Cl [tasisulam]			phenocopy CDK12 loss	phenocopy RNA-binding motif protein 39 (RBM39) CRISPR/Cas9 knockout
Nc1ccc(S(=O)(=O)Nc2cnc3c(Cl)cccc3n2)cc1 [CQS]			phenocopy CDK12 loss	phenocopy RNA-binding motif protein 39 (RBM39) CRISPR/Cas9 knockout
Cn1cc(-n2cnc3c(NCc4nc5cc(Cl)c(Cl)cc5[nH]4)nc(N4CCOCC4)nc32)cn1 [SR4835]	dose-dependent decreases in cell viability			
